According to patent US7687538B2 (priority 2004, dated 2010):

What was measured:
κ-opioid receptor (KOR) = κ-opioid receptor (KOR) (Homo sapiens, UniProt P41145); experiment: biochemical; type: binding
[1] = molecular target: kappa opiate receptor (KOR) (Homo sapiens, UniProt P41145); conditions: Roth 2002; cited from earlier work
[2] = Siebert 1994; cited from earlier work

Chain of κ-opioid receptor (KOR) (P41145 whole entry): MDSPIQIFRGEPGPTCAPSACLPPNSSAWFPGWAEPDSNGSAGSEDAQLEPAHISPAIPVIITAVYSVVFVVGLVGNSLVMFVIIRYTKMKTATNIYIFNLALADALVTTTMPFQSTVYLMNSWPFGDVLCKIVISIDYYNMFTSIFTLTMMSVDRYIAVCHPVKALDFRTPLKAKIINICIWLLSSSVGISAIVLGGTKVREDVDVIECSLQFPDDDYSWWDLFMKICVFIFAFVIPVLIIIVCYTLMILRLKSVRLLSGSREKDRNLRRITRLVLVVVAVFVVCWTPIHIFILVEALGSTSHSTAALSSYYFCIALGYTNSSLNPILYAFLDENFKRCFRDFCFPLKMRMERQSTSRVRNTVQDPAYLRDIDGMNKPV
Chain of kappa opiate receptor (KOR) (P41145 whole entry): as above

SMILES | Ki (κ-opioid receptor (KOR)) | agonist character at the kappa opiate receptor [1] | human dose (psychedelic agent) [2]
COC(=O)[C@@H]1C[C@H](S)C(=O)[C@H]2[C@@]1(C)CC[C@H]1C(=O)O[C@H](c3ccoc3)C[C@]21C [2-Thiol salvinorin B] | 11.2 nM |  | 
COC(=O)[C@@H]1C[C@H](OC(C)=O)C(=O)[C@H]2[C@@]1(C)CC[C@H]1C(=O)O[C@H](c3ccoc3)C[C@]21C [Salvinorin A] |  | full agonist | 0.5 to 1 mg
COC(=O)[C@@H]1C[C@H](SC(C)=O)C(=O)[C@H]2[C@@]1(C)CC[C@H]1C(=O)O[C@H](c3ccoc3)C[C@]21C [Salvinorinyl-2-thioacetate] | 7.9 nM |  | 
